In patent US8435976B2, “4-substituted pyridin-3-yl-carboxamide compounds and methods of use” (F. Hoffmann-La Roche, priority 2009, dated 2013):
Where two headings read alike, the source gives them in different places.

Experiments:
[1] = test system: multiple myeloma cell line KMS11; assay: Cell Titer Glo proliferation and survival assay, KMS11 and other multiple myeloma cell lines; format: cell-based; settings: Homo sapiens, KMS-11; single agent; ten multiple myeloma cell lines tested; read-out: IC50 against myeloma cell lines, single agent
From the text: The results obtained here are representative of a total of ten multiple myeloma cell lines tested.

EOL-1 = EOL-1 cell assay; format: cell-based; settings: Homo sapiens, EOL1; Table 3
BaF3 PIM1 cells = BaF3 PIM1 cells (Homo sapiens, UniProt P11309); assay: BaF3 PIM1 cell proliferation (Cell Titer Glo); format: cell-based
BaF3 PIM2 cells = BaF3 PIM2 cells (Homo sapiens, UniProt Q9P1W9); assay: BaF3 PIM2 cell proliferation (Cell Titer Glo); format: cell-based
Method in brief: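 BaF3 cells stably transfected with PIM2 were cultured in RPMI with 10% FBS, 2 mM L-Glutamine and 250 μg/mL G418, then plated at 5 k/well in 45 μL/well of a 384-well plate. Test compound was added at 5 μL/well, cells incubated overnight, and viability measured by luminescence after 30 minutes with Cell Titer Glo (50 μL/well).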

MM1.S cells = assay: MM1.S cell proliferation, 72 hours (Cell Titer Glo); format: cell-based; settings: Homo sapiens
Method in brief: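 BaF3 parental cells (2 k/well, with 2 ng/mL mIL-3) were treated overnight, and MM1.S cells (10 k/well) were treated for 72 h at 37 °C. Viability was read by CellTiter-Glo luminescence. IC50/EC50 values were calculated from the luminescence data.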

BaF3 parental cells = assay: BaF3 parental cell proliferation (Cell Titer Glo); format: cell-based; settings: Mus musculus, Table 3
Description: BaF3 parental line was obtained from the DSMZ repository. BaF3 lines transfected with PIM1 or PIM2 were generated. Mouse IL-3 was purchased from R&D Systems. G418 was purchased from Clontech. Media for BaF3 parental line contained RPMI, 10% FBS, 2 mM L-Glutamine, 2 ng/mL mIL-3. Media for BaF3 PIM1 & 2 lines contained RPMI, 10% FBS, 2 mM L-Glutamine, […]. Media for MM1.S line contained RPMI, 10% FBS, 2 mM L-Glutamine.
BaF3 parental cells, BaF3 PIM1 cells, BaF3 PIM2 cells, and MM1.S cells were seeded at 2 k/well, 5 k/well, 5 k/well, and 10 k/well respectively, in a 384-well plate, at 45 μL/well. Test compound was added at 5 μL/well. BaF3 cells (parental and transfected) were incubated overnight, while MM1.S cells were incubated for 72 hours at 37° C., 5% CO2. Cell Titer Glo Reagent (Promega) was added at 50 μL/well, the plates were incubated for 30 minutes, and their luminescence read on an HT Analyst. IC50/EC50 values for the test compound were calculated.

PIM2 = molecular target: T1, PIM2 (Homo sapiens, UniProt Q9P1W9); assay: Pim-2 kinase enzymatic assay (Caliper LC3000, FAM-Pimtide substrate); format: biochemical; settings: 50 pM PIM2, 10 μM ATP, 90 minutes; read-out: PIM2 LC3K (Ki)
T1 construct: made in house

PIM1 = molecular target: T2, PIM1 (Homo sapiens, UniProt P11309); assay: Pim-1 kinase enzymatic assay (Caliper LC3000, FAM-Pimtide substrate); format: biochemical; settings: 20 pM PIM1, 10 μM ATP, 90 minutes; read-out: PIM1 LC3K (Ki)
T2 construct: made in house

PIM3 = molecular target: T3, PIM3 (Homo sapiens, UniProt Q86V86); assay: Pim-3 kinase enzymatic assay (Caliper LC3000, FAM-Pimtide substrate); format: biochemical; settings: 55 pM PIM3, 10 μM ATP, 90 minutes; read-out: PIM3 LC3K (Ki)
T3 construct: made in house

[2] = test system: bone marrow aspirate samples from multiple myeloma patients; assay: Primary cancer cell isolates from bone marrow aspirates, apoptosis; format: cell-based, human; settings: 0.3 or 1.0 micromolar; two of four cases
Description: Shown in FIG. 2 are a summary of Combination Index values for Compound 3 in combination with different agents. The values shown were calculated at the ED50 of the dose response curves which were similar in nature to those exemplified in FIG. 1. Each dot in the plot represents the test results obtained with a different multiple myeloma cell line with a different combination of test agents, including Compound 3 plus a second agent as labeled on the abscissa. The horizontal line on the plot itself indicates the mean of all CI values for a given test agent. Combinations of Compound 3 with clinical standard of care chemotherapeutic agents including dexamethasone, lenalidomide, bortezomib, and melphalan produced variable results wherein CI values between about 0.1 and about 1 were obtained, with means generally greater than about 0.5. Compared to these clinically active agents, unexpectedly uniform and unexpectedly potent combination test results were obtained for Compound 3 in combination with Formula A, in which the majority of calculated CI values were less than about 0.2 and the mean across all cancer cell lines tested was about 0.2. In addition to these findings, bone marrow aspirate samples from multiple myeloma patients […] to test Formula A and Compound 3 singly and in combination on these primary cancer cell isolates.

[3] = test system: syngeneic A20 lymphoma tumors; assay: Syngeneic A20 lymphoma tumor model; format: in vivo, Balb/c mice; settings: Compound 3 25 and 50 mg/kg or Formula A 75 mg/kg po qd x21
Description: The efficacy of the combinations of the invention may be measured in vivo by implanting allografts or xenografts of cancer cells in rodents and treating the tumor-bearing animals with the combinations. […] Subject mice were treated with drug(s) or control (Vehicle) and monitored over several weeks or more to measure the time to tumor doubling, log cell kill, and tumor inhibition.
Dosing of all cohorts commenced on Day 0 when the mean tumor volume of all cohorts was between […]. […] At the conclusion of this study, femurs were collected and histological analysis of the bone marrow was conducted, and peripheral blood was collected for determination of blood cell counts.

[4] = test system: multiple myeloma cell line MM.1S; assay: MM.1S 3 day proliferation assay, single agents and combinations (Cell-Titer Glo); format: cell-based; settings: FIG. 1
Description: The in vitro potency of the combinations of formula I compounds with chemotherapeutic agents was measured by the cell proliferation assay of Example 11 and the results are compiled in Example iii. The CellTiter-Glo® Luminescent Cell Viability Assay (commercially available from Promega Corp., Madison, Wis.) is a homogeneous assay method based on the recombinant expression of Coleoptera luciferase (U.S. Pat. No. 5,583,024; U.S. Pat. No. 5,674,713; U.S. Pat. No. 5,700,670) and determines the number of viable cells in culture based on quantitation of the ATP present, an indicator of metabolically active cells (Crouch et al (1993) J. Immunol. Meth. 160:81-88; U.S. Pat. No. 6,602,677). The CellTiter-Glo® Assay was conducted in 96 or 384 well format, making it amenable to automated high-throughput screening (HTS) (Cree et al (1995) AntiCancer Drugs 6:398-404). The homogeneous assay procedure involves adding the single reagent (CellTiter-Glo® Reagent) directly to cells cultured in serum-supplemented medium. Cell washing, removal of medium and multiple pipetting steps are not required. The system detects as few as 15 cells/well in a 384-well format in 10 minutes after adding reagent and mixing.
The homogeneous “add-mix-measure” format results in cell lysis and generation of a luminescent signal proportional to the amount of ATP present. […] Viable cells are reflected in relative luminescence units (RLU). […] Data can be recorded by luminometer or CCD camera imaging device. The luminescence output is presented as relative light units (RLU), measured over time.
The combination index (CI) score is calculated by the Chou and Talalay method (Chou, T. and Talalay, P. (1984) Adv. Enzyme Regul. 22:27-55). […] The strength of synergy is assessed according to Chou and Talalay. […]
The in vitro cell survival and proliferation assay (Cell-Titer Glo, Promega) measured viable cells over varying inhibitor concentrations (10^−3 to 10 μMolar, Relative Units, wherein a Relative Unit equals 0.3 micromolar for Compound 3, 0.3 micromolar for Formula A, and 0.1 micromolar for Formula B). […]

[5] = test system: MM1.s multiple myeloma xenografts; assay: MM1.s multiple myeloma xenograft; format: in vivo, SCID mice; settings: Formula A 75 mg/kg po qd, day 18; compared with Compound 3 50 mg/kg
Description: (§1) The efficacy of the combinations of the invention may be measured in vivo by implanting allografts or xenografts of cancer cells in rodents and treating the tumor-bearing animals with the combinations. Variable results are to be expected depending on the cell line, the presence or absence of certain mutations in the tumor cells, the sequence of administration of a formula I compound and chemotherapeutic agent, dosing regimen, and other factors. Subject mice were treated with drug(s) or control (Vehicle) and monitored over several weeks or more to measure the time to tumor doubling, log cell kill, and tumor inhibition.
Dosing of all cohorts commenced on Day 0 when the mean tumor volume of all cohorts was between about 200 to 300 cubic millimeters. […] Formula A was tested at as a single agent at a single dose level of 75 mg/kg for which a lesser TGI was obtained at day 18.

[6] = test system: RPMI 8226.x1 multiple myeloma xenografts; assay: RPMI 8226.x1 multiple myeloma xenograft; format: in vivo, SCID Beige mice; settings: Formula A 75 mg/kg po qd x21, day 27
Description: as §1
Dosing of all cohorts commenced on Day 0 when the mean tumor volume of all cohorts was between about 100 to 200 cubic millimeters.

[7] = test system: prostate cancer cell line PC3; assay: Cell Titer Glo proliferation and survival assay, PC3; format: cell-based; settings: PC3, FIG. 5
From the text: The results obtained here are representative of a subset of prostate cell lines tested.

[8] = incubated overnight, read-out: Prolif BaF3_PIM1 (IC50)
[9] = incubated overnight, read-out: Prolif BaF3_PIM2 (IC50)
[10] = 72 hours, read-out: Prolif MM1S ATP (EC50)

Sequence of BaF3 PIM1 cells (P11309 whole entry, change not shown): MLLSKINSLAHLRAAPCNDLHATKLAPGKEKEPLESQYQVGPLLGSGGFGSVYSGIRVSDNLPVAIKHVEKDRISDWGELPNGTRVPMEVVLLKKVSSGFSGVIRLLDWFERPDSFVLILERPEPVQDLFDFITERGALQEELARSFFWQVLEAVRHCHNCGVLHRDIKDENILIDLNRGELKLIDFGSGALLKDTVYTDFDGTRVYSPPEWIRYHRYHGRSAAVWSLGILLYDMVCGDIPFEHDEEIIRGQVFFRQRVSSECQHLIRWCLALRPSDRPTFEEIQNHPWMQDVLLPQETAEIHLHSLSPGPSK
T2 sequence (P11309 whole entry): as the sequence (P11309 whole entry, change not shown) above
T1 sequence (Q9P1W9 whole entry): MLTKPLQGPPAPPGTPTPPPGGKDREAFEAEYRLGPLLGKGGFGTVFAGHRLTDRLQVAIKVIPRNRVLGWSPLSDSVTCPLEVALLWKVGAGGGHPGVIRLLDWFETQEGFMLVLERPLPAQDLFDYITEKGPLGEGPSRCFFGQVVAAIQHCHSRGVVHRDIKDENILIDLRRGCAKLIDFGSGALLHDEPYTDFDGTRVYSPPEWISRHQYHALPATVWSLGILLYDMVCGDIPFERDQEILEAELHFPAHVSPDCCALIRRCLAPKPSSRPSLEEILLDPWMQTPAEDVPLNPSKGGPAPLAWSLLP
Sequence of BaF3 PIM2 cells (Q9P1W9 whole entry, change not shown): as the sequence (Q9P1W9 whole entry) above

SMILES | Ki (PIM2) [nM] | GI50 (BaF3 PIM1 cells; [8]) [nM] | GI50 (BaF3 PIM2 cells; [9]) [nM] | Ki (PIM1) [nM] | Ki (PIM3) [nM] | EC50 (MM1.S cells; [10]) [nM] | lowest level reached by dose-response curve, of control value [4] | also measured
O=C(Nc1c[nH]c2ncccc12)c1cnn2ccc(NCCc3ccccc3)nc12 [Compound PIMi, 5-(phenethylamino)-N-(1H-pyrrolo[2,3-b]pyridine-3-yl)pyrazolo[1,5-a]pyrimidine-3-carboxamide, reference compound] |  |  |  |  |  |  |  | IC50 [1]: > 5000 nM; IC50 (EOL-1): 400 nM; GI50 (BaF3 PIM1 cells; Table 3, read-out: BaF3-Pim1): 400 nM; GI50 (BaF3 PIM2 cells; Table 3, read-out: BaF3-Pim2): > 20000 nM; EC50 (MM1.S cells; Table 3, read-out: MM1.s): > 20000 nM; IC50 (BaF3 parental cells): 12000 nM
Nc1sc(C2CCCNC2)nc1C(=O)Nc1cnccc1N1CCCC(N)C1 (stereo not shown) [Example 65, 5-amino-N-(4-(3-aminopiperidin-1-yl)pyridin-3-yl)-2-(piperidin-3-yl)thiazole-4-carboxamide] | 97.1 | > 20000 | > 20000 | 94.9 | 47.3 | > 20000 |  | 
CS(=O)(=O)N1CCN(Cc2cc3nc(-c4cccc5[nH]ncc45)nc(N4CCOCC4)c3s2)CC1 [Formula A, 4-(2-(1H-indazol-4-yl)-6-((4-(methylsulfonyl)piperazin-1-yl)methyl)thieno[3,2-d]pyrimidin-4-yl)morpholine, reference compound] |  |  |  |  |  |  | about 0% | activity on primary cancer cell isolates [2]: only limited single agent activity; effect on tumor growth, single agents [3]: no significant effect on tumor growth; tumor growth inhibition (TGI), in words [5]: lesser TGI; tumor growth inhibition (TGI) [6]: 40%; IC50 [7]: ~300 nM
Cc1c(CN2CCN(C(=O)[C@H](C)O)CC2)sc2c(N3CCOCC3)nc(-c3cnc(N)nc3)nc12 [Formula B, (S)-1-(4-((2-(2-aminopyrimidin-5-yl)-7-methyl-4-morpholinothieno[3,2-d]pyrimidin-6-yl)methyl)piperazin-1-yl)-2-hydroxypropan-1-one] |  |  |  |  |  |  | about 0% | 

Continued, in another order:

Ki (PIM2) [nM] | GI50 (BaF3 PIM1 cells; [8]) [nM] | GI50 (BaF3 PIM2 cells; [9]) [nM] | Ki (PIM1) [nM] | Ki (PIM3) [nM] | EC50 (MM1.S cells; [10]) [nM] | SMILES | lowest level reached by dose-response curve, of control value [4] | also measured
3.86 | 3400 | 12900 | 0.437 | 0.246 | 19900 | Nc1sc(-c2c(F)cccc2F)nc1C(=O)Nc1cnccc1N1C[C@@H](N)C[C@@H](F)C1 [Example 63, 5-amino-N-(4-((3S,5R)-3-amino-5-fluoropiperidin-1-yl)pyridin-3-yl)-2-(2,6-difluorophenyl)thiazole-4-carboxamide] |  | 
0.0894 | 40.6 | 2100 | 0.05 | 0.022 | 2800 | Nc1sc(-c2ncccc2F)nc1C(=O)Nc1cnccc1N1CCC[C@H](N)C1 [Example 66, (S)-5-amino-N-(4-(3-aminopiperidin-1-yl)pyridin-3-yl)-2-(3-fluoropyridin-2-yl)thiazole-4-carboxamide] |  | 
